Measured values reported in PubChem BioAssay (NCI).
Values joined by “and” are separate entries in the source; they are usually repeats but may differ in a detail not shown here. Equal values may be shown once.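 These data come from cells grown in 96-well plates and exposed to compound for 48 hours at five concentrations. The concentration for 50% growth inhibition is given as GI50. At the TGI there is no net growth.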

Test system: A498 renal
Test: DTP human tumour cell line panel, 48 h

**Q.** How did the GI50 turn out when `COC(=O)C1=CN(CC2=CC(=O)C(C)=CC2=O)C=C(C(=O)OC)C1c1ccccc1OC` was run?
**A.** 31.4 µM

**Q.** What about the TGI of the same compound?
**A.** > 87.9 µM

**Q.** Which GI50 does the source give for `COC(=O)/C=C/c1cc(OC(C)=O)c2c(c1)C(C(=O)OC)C(c1ccc(OC(C)=O)c(OC(C)=O)c1)O2` (configuration not stated) here?
**A.** 0.948 µM

**Q.** What about the TGI of the same compound?
**A.** 5.58 µM

**Q.** How did the TGI turn out when `O=C(O)c1ccc(CNCc2ccccc2)cc1` was run?
**A.** > 100 µM

**Q.** How did the TGI turn out when `Cc1cc2c(cc1C)[n+](=O)cc(C(=O)C/C(=N/NC(=S)NN)C(=O)Nc1cccc(C(F)(F)F)c1)n2[O-]` was run?
**A.** > 100 µM

**Q.** Which TGI does the source give for `COCOCCC#CCO` here?
**A.** > 100 µM

**Q.** Which TGI does the source give for `CC(C)=CCC1=C(O)c2ccccc2C(=O)C1=O` here?
**A.** > 100 µM

**Q.** For `O=[N+]([O-])c1ccccc1N=Nc1c(O)[nH]c2c(Cl)cc(Cl)cc12`, which TGI is on record?
**A.** > 100 µM

**Q.** With `NC(=S)N/N=C/c1ncccc1O` as the compound, how does the GI50 read?
**A.** 3.74 µM

**Q.** What about the TGI of the same compound?
**A.** 29.2 µM and 32.4 µM

**Q.** How did the TGI turn out when `O=C(CC(=O)Nc1ccccc1)NNC(Sc1ccccc1)c1cc(N=Nc2ccc(Br)cc2)ccc1O` (configuration not stated) was run?
**A.** 5.84 µM

**Q.** Which TGI does the source give for `CCOc1ccc(OCC(=O)O)c2c1CCCC2=O` here?
**A.** > 100 µM

**Q.** How did the TGI turn out when `Cc1cc(C(=O)CSC(=S)SC(C)(C)C)ccc1Cl` was run?
**A.** 29.8 µM

**Q.** What does the source list for `C=CC12CCN(CC1)C(C(O)c1ccnc3ccc(OC)cc13)C2` (configuration not stated)?
**A.** GI50: 60.5 µM; TGI: > 100 µM

**Q.** Which results are given for `O=C(Nc1nc(-c2c[nH]c3ccccc23)cs1)c1n[nH]c(=O)c2ccccc12`?
**A.** GI50: 22 µM; TGI: > 100 µM

**Q.** `CN(C)CCN1CCC(Cc2ccccc2)CC1` was tested. Which GI50 did it give?
**A.** 47.2 µM

**Q.** And the TGI?
**A.** > 80 µM

**Q.** With `COc1cc2c3c(n(C)c(=O)c2cc1OC)-c1cc2c(cc1C3=O)OCO2` as the compound, how does the TGI read?
**A.** > 97 µM

**Q.** `COc1ccc(/C=C\c2cc(OC)c(OC)c(OC)c2)cc1OCC(=O)O` was tested. Which TGI did it give?
**A.** > 83 µM

**Q.** For `CCOc1ccc(NC(=O)CC2SC(=Nc3ccc(C)cc3C)NC2=O)cc1` (configuration not stated), which TGI is on record?
**A.** > 100 µM

**Q.** Which results are given for `CCSc1nc(N=Cc2ccccc2O)c2cn[nH]c2n1`?
**A.** GI50: 4.61 µM; TGI: 29.2 µM

**Q.** Which GI50 does the source give for `O=C(Nc1ncc(Cc2cccc(C(F)(F)F)c2)s1)c1ccc2c(c1)OCCO2` here?
**A.** 0.0484 µM

**Q.** And the TGI?
**A.** 0.442 µM

**Q.** Which GI50 does the source give for `NC(=O)c1cc(I)ccc1NC(=O)/C=C/c1ccccc1` here?
**A.** 1.28 µM

**Q.** And the TGI?
**A.** 13 µM

**Q.** Which GI50 does the source give for `COc1ccc(CNc2c3ccccc3nc3ccccc23)cc1F` here?
**A.** 1.98 µM

**Q.** And the TGI?
**A.** 5.99 µM

**Q.** How did the GI50 turn out when `CCn1cc(-c2ccnc3[nH]c(-c4cccc(CN(C)C)c4)cc23)c(-c2ccc(NC(=O)N(C)C)cc2)n1` was run?
**A.** 0.0673 µM and 0.519 µM

**Q.** And the TGI?
**A.** 0.749 µM and 3.28 µM

**Q.** `O=C1C/C(Br)=C\c2ccccc2-c2ccccc21` was tested. Which TGI did it give?
**A.** 22.5 µM

**Q.** With `CNc1cc2oc(=O)cc(C)c2cc1C` as the compound, how does the TGI read?
**A.** > 100 µM

Test system: EKVX NSCLC
Test: DTP human tumour cell line panel, 48 h

**Q.** Which GI50 does the source give for `COC(=O)C1=CN(CC2=CC(=O)C(C)=CC2=O)C=C(C(=O)OC)C1c1ccccc1OC` here?
**A.** 28.8 µM

**Q.** And the TGI?
**A.** > 100 µM

**Q.** With `COC(=O)/C=C/c1cc(OC(C)=O)c2c(c1)C(C(=O)OC)C(c1ccc(OC(C)=O)c(OC(C)=O)c1)O2` (configuration not stated) as the compound, how does the GI50 read?
**A.** 2.28 µM

**Q.** What about the TGI of the same compound?
**A.** > 86 µM

**Q.** How did the TGI turn out when `O=C(O)c1ccc(CNCc2ccccc2)cc1` was run?
**A.** > 100 µM

**Q.** Which TGI does the source give for `Cc1cc2c(cc1C)[n+](=O)cc(C(=O)C/C(=N/NC(=S)NN)C(=O)Nc1cccc(C(F)(F)F)c1)n2[O-]` here?
**A.** > 100 µM

**Q.** `COCOCCC#CCO` was tested. Which TGI did it give?
**A.** > 100 µM

**Q.** With `CC(C)=CCC1=C(O)c2ccccc2C(=O)C1=O` as the compound, how does the GI50 read?
**A.** 57.7 µM

**Q.** And the TGI?
**A.** > 100 µM

**Q.** Which TGI does the source give for `O=[N+]([O-])c1ccccc1N=Nc1c(O)[nH]c2c(Cl)cc(Cl)cc12` here?
**A.** 99.5 µM

**Q.** `NC(=S)N/N=C/c1ncccc1O` was tested. Which GI50 did it give?
**A.** 8.58 µM

**Q.** What about the TGI of the same compound?
**A.** > 92.8 µM and 28.1 µM

**Q.** For `O=C(CC(=O)Nc1ccccc1)NNC(Sc1ccccc1)c1cc(N=Nc2ccc(Br)cc2)ccc1O` (configuration not stated), which TGI is on record?
**A.** > 10 µM

**Q.** `CCOc1ccc(OCC(=O)O)c2c1CCCC2=O` was tested. Which TGI did it give?
**A.** > 100 µM

**Q.** For `Cc1cc(C(=O)CSC(=S)SC(C)(C)C)ccc1Cl`, which TGI is on record?
**A.** 56.8 µM

**Q.** `C=CC12CCN(CC1)C(C(O)c1ccnc3ccc(OC)cc13)C2` (configuration not stated) was tested. Which GI50 did it give?
**A.** > 100 µM

**Q.** What about the TGI of the same compound?
**A.** > 100 µM

**Q.** Which GI50 does the source give for `O=C(Nc1nc(-c2c[nH]c3ccccc23)cs1)c1n[nH]c(=O)c2ccccc12` here?
**A.** 51.3 µM

**Q.** And the TGI?
**A.** > 100 µM

**Q.** For `CN(C)CCN1CCC(Cc2ccccc2)CC1`, which GI50 is on record?
**A.** > 80 µM

**Q.** What about the TGI of the same compound?
**A.** > 80 µM

**Q.** How did the TGI turn out when `COc1cc2c3c(n(C)c(=O)c2cc1OC)-c1cc2c(cc1C3=O)OCO2` was run?
**A.** > 100 µM

**Q.** `COc1ccc(/C=C\c2cc(OC)c(OC)c(OC)c2)cc1OCC(=O)O` was tested. Which TGI did it give?
**A.** > 100 µM

**Q.** For `CCOc1ccc(NC(=O)CC2SC(=Nc3ccc(C)cc3C)NC2=O)cc1` (configuration not stated), which TGI is on record?
**A.** > 100 µM

**Q.** For `CCSc1nc(N=Cc2ccccc2O)c2cn[nH]c2n1`, which GI50 is on record?
**A.** 47.2 µM

**Q.** What about the TGI of the same compound?
**A.** > 100 µM

**Q.** `O=C(Nc1ncc(Cc2cccc(C(F)(F)F)c2)s1)c1ccc2c(c1)OCCO2` was tested. Which GI50 did it give?
**A.** 0.602 µM

**Q.** What about the TGI of the same compound?
**A.** > 100 µM

**Q.** With `NC(=O)c1cc(I)ccc1NC(=O)/C=C/c1ccccc1` as the compound, how does the GI50 read?
**A.** 0.787 µM

**Q.** And the TGI?
**A.** > 68.8 µM

**Q.** `COc1ccc(CNc2c3ccccc3nc3ccccc23)cc1F` was tested. Which GI50 did it give?
**A.** 3.59 µM

**Q.** What about the TGI of the same compound?
**A.** 14.5 µM

**Q.** What does the source list for `CCn1cc(-c2ccnc3[nH]c(-c4cccc(CN(C)C)c4)cc23)c(-c2ccc(NC(=O)N(C)C)cc2)n1`?
**A.** GI50: 3.87 µM; TGI: > 10 µM

**Q.** `O=C1C/C(Br)=C\c2ccccc2-c2ccccc21` was tested. Which TGI did it give?
**A.** 21.8 µM

**Q.** For `CNc1cc2oc(=O)cc(C)c2cc1C`, which TGI is on record?
**A.** > 100 µM

Test system: HCT-15 colon
Test: DTP human tumour cell line panel, 48 h

**Q.** Which results are given for `COC(=O)C1=CN(CC2=CC(=O)C(C)=CC2=O)C=C(C(=O)OC)C1c1ccccc1OC`?
**A.** GI50: 18.9 µM; TGI: 39.2 µM

**Q.** `COC(=O)/C=C/c1cc(OC(C)=O)c2c(c1)C(C(=O)OC)C(c1ccc(OC(C)=O)c(OC(C)=O)c1)O2` (configuration not stated) was tested. Which GI50 did it give?
**A.** 0.0445 µM

**Q.** And the TGI?
**A.** > 100 µM

**Q.** Which TGI does the source give for `O=C(O)c1ccc(CNCc2ccccc2)cc1` here?
**A.** > 100 µM

**Q.** With `Cc1cc2c(cc1C)[n+](=O)cc(C(=O)C/C(=N/NC(=S)NN)C(=O)Nc1cccc(C(F)(F)F)c1)n2[O-]` as the compound, how does the TGI read?
**A.** > 100 µM

**Q.** How did the TGI turn out when `COCOCCC#CCO` was run?
**A.** > 100 µM

**Q.** `CC(C)=CCC1=C(O)c2ccccc2C(=O)C1=O` was tested. Which TGI did it give?
**A.** > 100 µM

**Q.** `O=[N+]([O-])c1ccccc1N=Nc1c(O)[nH]c2c(Cl)cc(Cl)cc12` was tested. Which TGI did it give?
**A.** > 100 µM

**Q.** What does the source list for `NC(=S)N/N=C/c1ncccc1O`?
**A.** GI50: 2.67 µM; TGI: > 439 µM

**Q.** `O=C(CC(=O)Nc1ccccc1)NNC(Sc1ccccc1)c1cc(N=Nc2ccc(Br)cc2)ccc1O` (configuration not stated) was tested. Which TGI did it give?
**A.** > 10 µM

**Q.** Which TGI does the source give for `CCOc1ccc(OCC(=O)O)c2c1CCCC2=O` here?
**A.** > 100 µM

**Q.** `Cc1cc(C(=O)CSC(=S)SC(C)(C)C)ccc1Cl` was tested. Which TGI did it give?
**A.** 57.6 µM

**Q.** With `C=CC12CCN(CC1)C(C(O)c1ccnc3ccc(OC)cc13)C2` (configuration not stated) as the compound, how does the GI50 read?
**A.** 96.2 µM

**Q.** What about the TGI of the same compound?
**A.** > 100 µM
